Test results: ChEMBL document CHEMBL3885861, “Open TG-GATES”

Organism: Rattus norvegicus
Experiment: Open TG-GATES - Regimen: Single
Format: toxicity, organism-based, Sprague-Dawley
Parameters: regimen Single, gender Male, age 6 weeks
Settings: in vivo, po, 0 mg/kg, route gavage, dose level Control; for Bas / Eos / Lym / MCHC / MCV / Mono / Neu / RBC / Ret / WBC: tissue Blood; for KIDNEY_L / KIDNEY_R / KIDNEY_TOTAL: tissue Kidney; for LIVER: tissue Liver; for ALP / AST / CRE / DBIL / GLC / IP / K / LDH / Na / PL / RALB / TBIL / TC / TP / gamma-GTP: tissue Plasma

CS(=O)(=O)O.Cc1ccc(NC(=O)c2ccc(CN3CCN(C)CC3)cc2)cc1Nc1nccc(-c2cccnc2)n1 [IMATINIB MESYLATE]
Bas (3 h): 0%
Eos (3 h): 0.6%
Lym (3 h): 77.4%
MCHC (3 h): 32.7%
MCV (3 h): 64.2 fL
Mono (3 h): 3%
Neu (3 h): 18.6%
RBC (3 h): 606.4 x10_4/ul
Ret (3 h): 9.4%
WBC (3 h): 98.6 x10_2/uL
KIDNEY_L (3 h): 0.9 g
KIDNEY_R (3 h): 0.9 g
KIDNEY_TOTAL (3 h): 1.7 g
LIVER (3 h): 9.6 g
ALP (3 h): 1737 IU/L
AST (3 h): 82.8 IU/L
CRE (3 h): 0.2 mg/dL
DBIL (3 h): 0.004 mg/dL
GLC (3 h): 184 mg/dL
IP (3 h): 8.3 mg/dL
K (3 h): 4.1 meq/L
LDH (3 h): 215.6 IU/L
Na (3 h): 143.2 meq/L
PL (3 h): 163.8 mg/dL
RALB (3 h): 4.1 g/dL
TBIL (3 h): 0.012 mg/dL
TC (3 h): 86.8 mg/dL
TP (3 h): 5.4 g/dL
gamma-GTP (3 h): 0.8 IU/L
Bas (6 h): 0%
Eos (6 h): 0.4%
Lym (6 h): 80.4%
MCHC (6 h): 33.1%
MCV (6 h): 63.3 fL
Mono (6 h): 3%
Neu (6 h): 15.2%
RBC (6 h): 615.4 x10_4/ul
Ret (6 h): 11.2%
WBC (6 h): 112.4 x10_2/uL
KIDNEY_L (6 h): 0.8 g
KIDNEY_R (6 h): 0.8 g
KIDNEY_TOTAL (6 h): 1.7 g
LIVER (6 h): 8.7 g
ALP (6 h): 1529.4 IU/L
AST (6 h): 72.4 IU/L
CRE (6 h): 0.2 mg/dL
DBIL (6 h): 0.006 mg/dL
GLC (6 h): 175.8 mg/dL
IP (6 h): 9.6 mg/dL
K (6 h): 4.2 meq/L
Na (6 h): 139.7 meq/L
PL (6 h): 152.4 mg/dL
RALB (6 h): 4 g/dL
TBIL (6 h): 0.022 mg/dL
TC (6 h): 86.4 mg/dL
TP (6 h): 5.5 g/dL
gamma-GTP (6 h): 0.9 IU/L
Bas (9 h): 0%
Eos (9 h): 0.8%
Lym (9 h): 76.4%
MCHC (9 h): 33.4%
MCV (9 h): 62.3 fL
Mono (9 h): 2.2%
Neu (9 h): 20.4%
RBC (9 h): 617 x10_4/ul
Ret (9 h): 9%
WBC (9 h): 86 x10_2/uL
KIDNEY_L (9 h): 0.9 g
KIDNEY_R (9 h): 0.9 g
KIDNEY_TOTAL (9 h): 1.8 g
LIVER (9 h): 8.1 g
ALP (9 h): 1372 IU/L
AST (9 h): 76.6 IU/L
CRE (9 h): 0.2 mg/dL
DBIL (9 h): 0.01 mg/dL
GLC (9 h): 170 mg/dL
IP (9 h): 9.5 mg/dL
K (9 h): 3.9 meq/L
LDH (9 h): 175 IU/L
Na (9 h): 140.3 meq/L
PL (9 h): 140.2 mg/dL
RALB (9 h): 4.1 g/dL
TBIL (9 h): 0.016 mg/dL
TC (9 h): 81.8 mg/dL
TP (9 h): 5.5 g/dL
gamma-GTP (9 h): 0.8 IU/L
Bas (24 h): 0%
Eos (24 h): 1%
Lym (24 h): 81.4%
MCHC (24 h): 32.9%
MCV (24 h): 65.5 fL
Mono (24 h): 2.4%
Neu (24 h): 14.6%
RBC (24 h): 607.4 x10_4/ul
Ret (24 h): 9.3%
WBC (24 h): 100.4 x10_2/uL
KIDNEY_L (24 h): 0.9 g
KIDNEY_R (24 h): 0.9 g
KIDNEY_TOTAL (24 h): 1.8 g
LIVER (24 h): 10 g
ALP (24 h): 1682.4 IU/L
AST (24 h): 68.2 IU/L
CRE (24 h): 0.2 mg/dL
DBIL (24 h): 0 mg/dL
GLC (24 h): 199.8 mg/dL
IP (24 h): 7.8 mg/dL
K (24 h): 4.2 meq/L
LDH (24 h): 195.2 IU/L
Na (24 h): 142.7 meq/L
PL (24 h): 149 mg/dL
RALB (24 h): 4.1 g/dL
TBIL (24 h): 0.004 mg/dL
TC (24 h): 75.2 mg/dL
TP (24 h): 5.8 g/dL
gamma-GTP (24 h): 1 IU/L
